Earlier results in patent publication US9592004B2, “Methods and systems for managing epilepsy and other neurological disorders” (CYBERONICS, INC., priority 2005, dated 2017).
Where two headings read alike, the source gives them in different places.

Tests used:
seizure = conditions: intranasal
[1] = not given; remark: listed apart in the source
sodium channels = conditions: in vitro
T-type Ca^2+ currents = conditions: in vitro
[2] = tested on: GABA/benzodiazepine receptor ionophore complex; conditions: in vitro; does not produce changes in chloride flux
[3] = tested on: cultured mouse spinal cord neurons; conditions: 10-30 μg/mL
rat hippocampal slices = conditions: 10-30 μg/mL
[4] = tested on: dopaminergic and serotonergic neurotransmission; conditions: in vivo microdialysis
partial seizures = conditions: controlled trials, adjunctive therapy, adults, oral
[5] = long term therapy, per daily dose of 1 mg/kg of primidone

## Cc1ncc2n1-c1ccc(Cl)cc1C(c1ccccc1F)=NC2 [Midazolam, midazolam]
seizure
  time to terminate a seizure: 30 s

## O=C1NC(=O)C(c2ccccc2)(c2ccccc2)N1 [Phenytoin, diphenylhydantoin]
seizures
  concentration giving chronic control of seizures: above 10 μg/ml
other
  concentration at which toxic effects such as nystagmus develop: around 20 μg/ml

## CCC1(C)CC(=O)NC1=O (stereo not shown) [ethosuximide, Ethosuximide]
[1]; long-term therapy, per daily dose of 1 mg/kg
  average plasma concentration: about 2 μg/ml

## CCC1(c2ccccc2)C(=O)NC(=O)NC1=O [phenobarbital, Phenobarbital]
[1]; long term therapy in adults, per daily dose of 1 mg/kg
  average plasma concentration: about 10 μg/ml
[1]; [5]
  average plasma concentration: about 2 μg/ml

## CCC1(c2ccccc2)C(=O)NCNC1=O [primidone, Primidone]
[1]; [5]
  average plasma concentration: about 1 μg/ml

## NS(=O)(=O)Cc1noc2ccccc12 [zonisamide, 1,2-benzisoxazole-3-methanesulfonamide]
Sodium channels
  effect on sodium channels: blocks sodium channels
T-type Ca^2+ currents
  effect on T-type Ca2+ currents: reduces voltage-dependent, transient inward currents
[2]
  binding to GABA/benzodiazepine receptor ionophore complex: binds to the GABA/benzodiazepine receptor ionophore complex in an allosteric fashion
[3]
  effect on synaptically-driven electrical activity: suppresses synaptically-driven electrical activity
[3]; cultured mouse spinal cord neurons
  effect on postsynaptic GABA or glutamate responses: without affecting postsynaptic GABA or glutamate responses
Rat hippocampal slices
  effect on neuronal or glial uptake of [3H]-GABA: without affecting
[4]
  effect on dopaminergic and serotonergic neurotransmission: facilitates both dopaminergic and serotonergic neurotransmission
Partial seizures
  effective doses: 100 to 600 mg/day
Carbonic anhydrase
  carbonic anhydrase inhibiting activity: weak carbonic anhydrase inhibiting activity
